In patent US20060004026A1, “Compositions for ameliorating attention-deficient/hyperactivity disorder” (priority 2001, published 2006):

Columns and labels:
[1] = test system: patients diagnosed attention-deficit hyperactivity disorder; assay: administration to patients diagnosed attention-deficit hyperactivity disorder; format: in vivo, human
Text: The “attention-deficit hyperactivity disorder,” as referred to herein, to which the composition of the present invention is applied is a symptom judged on the basis of a diagnostic method for ADHD, as defined in DSM-IV Seishin Shogai no Shindan•Tokei Manyuaru (Diagnosis and Statistic Manuals for DSM-IV Mental Disorders) (published by Igakushoin, 1996). Concretely, an individual with ADHD meets the following criteria.
In addition, the diagnosis is made under the conditions that some of these symptoms have caused problems before reaching 7-years old, and that any problems take place at present in two or more different locations (examples: school and home). Also, the judgment is made only in the case where serious disorders are recognized in social life, schoolwork and vocational work, and any of the symptoms are not caused by other diseases.
The exhibition of the action for mitigating or alleviating attention-deficit hyperactivity disorder by theanine can be evaluated by a clinical test in which theanine is administered to a patient who meets the above-mentioned [Criteria for Diagnosis], and any ameliorative effects on attention-deficit hyperactivity disorder are observed, as compared to that before the administration of theanine.
Five patients who were diagnosed attention-deficit hyperactivity disorder by doctors were administered with a composition containing L-theanine. The composition was prepared so that L-theanine was mixed with crystalline cellulose, sucrose fatty acid ester, reducing maltose, silicon dioxide, lactose and aspartame so as to have the content of L-theanine of 20% by weight, and tableting the mixture to prepare a tablet.

mouse = assay: acute toxic test using a mouse; format: in vivo; details: oral administration at 5 g/kg
Text: The theanine used in the present invention has high safety. […] Also, especially L-theanine is known as a main component of umami (tastiness) of the green tea, and is also used as a food additive giving umami, without the limitation of its added amount under the regulation for food hygiene. Moreover, contrary to the conventional drugs, since there is no side effect by theanine at all, the amelioration of attention-deficit hyperactivity disorder can be safely and effectively achieved according to the composition of the present invention.

## CCNC(=O)CC[C@H](N)C(=O)O [L-theanine]
[1]; Patient 1, 50 mg/day over 8 weeks
  effect judged by the doctor in charge: effective
[1]; Patient 1, 50 mg/day over 8 weeks, tablet with 20% by weight L-theanine
  ADHD symptoms after the termination of the administration: substantially disappeared
[1]; Patient 2 (person one), 200 mg/day over 10 weeks
  ADHD symptoms after the termination of the administration: substantially disappeared
[1]; Patient 2, 200 mg/day over 10 weeks
  effect judged by the doctor in charge: effective
[1]; Patient 3, 100 mg/day together with Ritalin over 1 week
  ADHD symptoms: substantially disappeared
[1]; Patient 4, 200 mg/day only once before school
  behaviour at school on the day of administration: could attend the classes without any problems
[1]; Patient 4, 200 mg/day only once, following day
  state of symptoms in the following day (maintenance by a single dosage): returned to the original state of symptoms
[1]; Patient 5, 60 mg/day over 1 week
  ADHD symptoms after the termination of the administration: remarkably ameliorated

## COC(=O)C(c1ccccc1)C1CCCCN1 (stereo not drawn) [Ritalin, methylphenidate, reference compound]
[1]; Patient 2, earlier treatment with Ritalin
  ADHD symptoms during the administration: stabilized
[1]; Patient 2, earlier treatment with Ritalin, administration was stopped
  side effects: serious

## CCNC(=O)CC[C@H](N)C(=O)O [theanine, γ-glutamylethylamide]
mouse
  abnormalities in the general states, weight and the like: no abnormalities
  cases of death: no cases of death
